Laboratory results reported in patent US20130236922A1, “COPPER(I)-ION SELECTIVE FLUORESCENT PROBE, METHOD FOR PREPARING THE SAME, METHOD FOR DIAGNOSING MALIGNANT DISEASE AND DIAGNOSIS KIT USING THE PROBE” (priority 2011, published 2013).

Legend:
[1] = Dissociation constant for the multiphoton process of the zinc(II) ion-selective probe; type: binding; conditions: Zn(II) ions; read-out: Dissociation constant (KdTP) for the multiphoton process
Source text: Accordingly, the compound could be used to detect Zn(II) ions in the picomolar (pM) to nanomolar (nM) range by multiphoton microscopy.

[2] = Reactivity for copper(I) ions compared to competing metal ions (relative fluorescence intensity); conditions: compound 2 μM
Experimental: In FIG. 5, open bars show relative fluorescence intensity of the compound of Chemical Formula 2 (2 μM) resulting from reaction with Na^+, K^+, Mg^2+ and Ca^2+ (1 mM), Hg^2+ (2 μM) and other cations (50 mM) in 20 mM HEPES buffer (pH 7.0) before adding copper(I) ions, and filled bars show relative fluorescence intensity after adding 2 μM copper(I) ions (The cations indicated as numbers below the bars are as follows: (1) Cu^+; (2) Na^+; (3) K^+; (4) Mg^2+; (5) Ca^2+; (6) Mn^2+; (7) Fe^2+, (8) Co^2+; (9) Ni^2+; (10) Cu^2+; (11) Zn^2+; (12) Hg^2+).

[3] = One-photon fluorescence intensity at different pH's with and without copper(I) ions; conditions: compound 2 μM, HEPES buffer, 0 and 2 μM copper(I) ions, biologically significant pH ranges, excitation 365 nm
Source text: Light with a wavelength of 365 nm was used for excitation. […] Thus, from FIG. 5 and FIG. 6, it can be seen that the compound of Chemical Formula 2 according to the present disclosure is capable of detecting copper(I) ions with little interference by pH or other metal ion.

[4] = test system: HeLa cells; assay: Two-photon microscopy detection of copper(I) ions in cultured HeLa cells; type: cell-based; conditions: compound 2 μM, 37° C., 20 minutes
Source text: In order to investigate the applicability of the compound of Chemical Formula 2 in biological cells, copper(I) ions in cultured HeLa cells were detected by two-photon microscopy.

[5] = Two-photon fluorescence spectra in the presence of copper(I) ions (Fd value); type: physicochemical; conditions: at 750 nm, HEPES buffer, 2 μM copper(I) ions
Source text: Referring to FIG. 7, the two-photon spectrum of the compound of Chemical Formula 2-Cu^+ complex in HEPES buffer indicated an Fd value of 67 GM at 750 nm, more than 13-fold as compared to BODIPY (<5 GM 750 nm). Accordingly, it can be conjectured that a sample stained with the compound of Chemical Formula 2 gives a much brighter two-photon image than one stained with the BODIPY dye.

[6] = One-photon and two-photon fluorescence titration with free copper(I) ions; type: binding; conditions: for Kd: HEPES 20 mM, thiourea 100 μM, pH 7.0, 1:1 binding model
Experimental: Absorption spectra were obtained using a Hewlett-Packard 8453 diode array spectrophotometer and fluorescence spectra were obtained using an Amico-Bowman series 2 luminescence spectrometer equipped with a 1-cm standard quartz cell. Fluorescence quantum yield was determined according to the literature using Coumarin 307 as reference compound (J. N. Demas, G. A. Crosby, J. Phys. Chem. 1971, 75, 991).
FIGS. 2A and 2B show one-photon absorption (FIG. 2A) and fluorescence (FIG. 2B) spectra for the compound of Chemical Formula 2 (2 μM) in the presence of free copper(I) ions (0-360 pM). Referring to FIGS. 2A and 2B, when copper(I) ions were added to the compound of Chemical Formula 2 in HEPES buffer, the fluorescence intensity increased gradually with the concentration of the copper(I) ions, without effect on the absorption spectrum. It may be because the metal ion forms a complex with the compound of Chemical Formula 2 and blocks photoinduced electron transfer (PeT). When the concentration of free copper(I) ion was 360 pM, the fluorescence intensity increased by about 4 times. A similar behavior was also observed for two-photon fluorescence spectra (see FIG. 3).
Dissociation constants (Kd) of the compound of Chemical Formula 2 for one-photon and two-photon processes were calculated from fluorescence titration curves (see FIG. 4) (HEPES buffer was used. [HEPES]=20 mM, [thiourea]=100 μM, pH=7.0).

[7] = Solubility in HEPES buffer by the fluorescence method; type: physicochemical; conditions: aqueous buffer, HEPES buffer ([HEPES]=20 mM, pH 7.0)
Experimental: FIGS. 1A and 1B show normalized absorption (FIG. 1A) and fluorescence (FIG. 1B) spectra of the compound of Chemical Formula 2 in 1,4-dioxane, DMF, ethanol and HEPES buffer ([HEPES]=20 mM, pH 7.0). Light with a wavelength of 365 nm was used for excitation. Solubility of the compound of Chemical Formula 2 in HEPES buffer ([HEPES]=20 mM, pH 7.0) was measured as 4.0 μM by the fluorescence method disclosed in the literature (H. M. Kim and B. R. Cho, Acc. Chem. Res., 2009, 42, 863; M. K. Kim, C. S. Lim, J. T. Hong, J. H. Han, H. Y. Jang, H. M. Kim and B. R. Cho, Angew. Chem., Int. Ed., 2010, 49, 364; J. H. Lee, C. S. Lim, Y. S. Tian, J. H. Han and B. R. Cho, J. Am. Chem. Soc., 2010, 132, 1216; H. M. Kim and B. R. Cho, Chem. Asian J., 2011, 6, 58), which is sufficient for staining of cells.

Compound	Kd [1]	Interference by Hg2+ ([2]; Hg2+ 2 μM, 20 mM HEPES pH 7.0)	Interference by competing metal ions Na+, K+, Mg2+, Ca2+, Mn2+, Fe2+, Co2+, Ni2+, Cu2+, Zn2+ ([2]; 20 mM HEPES pH 7.0, before and after adding 2 μM copper(I) ions)	Dependence of reactivity on pH of reaction solutions [3]	TPM image of labeled HeLa cells [4]	Fd value of the Cu+ complex [5]	Kd ([6]; read-out: Dissociation constant (Kd) for the copper(I) ion, one-photon process)	Kd ([6]; read-out: Dissociation constant (Kd) for the copper(I) ion, two-photon process)	Increase of fluorescence intensity on adding copper(I) ions ([6]; free copper(I) ion 360 pM, compound 2 μM, HEPES buffer, one-photon)	solubility [7]
CC(=O)c1ccc2cc(N(C)CC(=O)Nc3ccc(NCCN(Cc4ccccn4)Cc4ccccn4)cc3)ccc2c1 [Preparation Example 2]	1100 pM	–	–	–	–	–	–	–	–	–
CCSCCSCCN(CCSCCSCC)c1ccc(NC(=O)CN(C)c2ccc3cc(C(C)=O)ccc3c2)cc1 [Chemical Formula 2]	–	only exception	not interfered	irrelevant of the pH	very bright TPM image	67 GM	16 ± 2 pM	20 ± 3 pM	about 4 times	4 µM
